# In patent US20120322060A1, “DIAGNOSIS AND MONITORING TREATMENT OF PSYCHIATRIC DISEASES WITH SPADIN AND RELATED METHODS” (CENTRE NATIONAL DE LE RECHERCHE SCIENTIFIQUE - CNRS -, priority 2011, published 2012):
# Entries after “also recorded” stand apart in the source; their conditions may differ. No end group written: not given here.
# Experiments:
# TREK-1 [1] = biological target: T1, TREK-1 (Mus musculus, UniProt P97438); assay: Association kinetics / internalization of 125I-spadin on COS-7 cells expressing TREK-1; type: cell-based; set-up: expressed in transfected cells; host or cells: COS-7 (DEAE-dextran transfection); conditions: 37° C.
# T1 sequence (P97438 1-426): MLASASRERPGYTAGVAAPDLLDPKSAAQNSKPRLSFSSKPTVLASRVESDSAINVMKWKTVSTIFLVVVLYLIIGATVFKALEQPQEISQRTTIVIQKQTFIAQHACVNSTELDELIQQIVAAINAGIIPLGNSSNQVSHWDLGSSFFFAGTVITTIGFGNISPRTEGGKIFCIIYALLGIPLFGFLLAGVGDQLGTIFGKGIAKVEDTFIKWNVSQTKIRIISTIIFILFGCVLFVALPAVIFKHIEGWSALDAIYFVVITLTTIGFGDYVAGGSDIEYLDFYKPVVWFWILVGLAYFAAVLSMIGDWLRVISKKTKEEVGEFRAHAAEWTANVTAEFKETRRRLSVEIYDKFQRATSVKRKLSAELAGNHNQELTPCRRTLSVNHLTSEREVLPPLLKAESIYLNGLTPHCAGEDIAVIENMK
# Experimental: Cells, grown on 12 mm multiwell-dishes, were incubated with 0.2 nM ^125I-spadin for various times at 37° C. in an Earle's Tris-Hepes buffer (cell binding buffer). Incubations were terminated by washing cells twice with the binding buffer or with the same buffer containing 0.5 M NaCl, pH 4, for 2 min to remove non sequestrated radioactivity (acid-NaCl wash). Cells were harvested with 1 ml of 0.1 N NaOH and counted in a gamma-counter. Non specific binding was determined in the presence of 10 μM unlabeled spadin.
# mice [2] = assay: Porsolt Forced Swim Test (FST) in mice; type: in vivo, mouse; conditions: for reduced immobility time: acute, 30 min before test
# Experimental: Mice (Janvier, France) were placed individually in cylinders (height: 30 cm, diameter: 15 cm) filled with 12 cm deep water (temperature: 22±1° C.) for 6 min. The total period of immobility was recorded during the last 4 min.
# TREK-1 [3] = biological target: T1, TREK-1; assay: Whole-cell patch-clamp on TREK-1 transfected COS-7 cells; type: cell-based; set-up: GFP; expressed in transfected cells; host or cells: COS-7 (DEAE-dextran transfection); conditions: after 90 sec of application
# Experimental: All electrophysiological experiments were done on COS-7 cells seeded at a density of 20,000 cells/35-mm dish 24 h before transfection. Cells were transfected by the classical DEAE-dextran method with TREK-1-GFP plasmids (0.1 μg/μL). Cells were visualized 48-72 h after transfection using fluorescence.
# The whole-cell patch-clamp technique was used to evaluate TREK-1 potassium channel current by using a RK 400 patch-clamp amplifier (Axon Instruments, U.S.A.), as previously described. Currents were lowpass filtered at 3 kHz, digitized at 10 kHz using a 12-bit analog-to-digital converter. […] The bath solution contained (in mM): 150 NaCl, 5 KCl, 3 MgCl2, 1 CaCl2, and 10 HEPES, adjusted to pH 7.4 with NaOH; the patch pipette solution contained (in mM): 155 KCl, 3 MgCl2, 5 EGTA, and 10 HEPES, adjusted to pH 7.2 with KOH. Cells were clamped at −80 mV and voltage changes were either applied by ramp (from −100 to 50 mV, 1 s in duration) or by step (from −100 to 40 mV, 1.5 s in duration). Cells were continuously superfused with a microperfusion system. The pipette capacitance was not subtracted from total membrane capacitance and there was no leak substraction. All experiments were done at room temperature (21° C. to 22° C.) and in the presence of a cocktail of potassium channel inhibitors (K^+ blockers: 10 mM tetraethyl ammonium (TEA), 3 mM 4-aminopyridine (4-AP), 50 nM charybdotoxin, 10 μM glibenclamide, 100 nM apamin).
# Pclamp software was used to analyze currents recorded in the whole-cell mode measured at 0 mV. Results are expressed as means±SD. To obtain the IC50 value for dose-dependent inhibition, experimental data were fitted with a standard sigmoidal function.
# TREK-1 [4] = biological target: T1, TREK-1; assay: Whole-cell patch-clamp of native currents on β-TC3 cell line; type: cell-based; set-up: expressed in transfected cells; host or cells: COS-7 (DEAE-dextran transfection); conditions: 1 μM spadin; read-out: inhibition of endogenous TREK-1
# Experimental: Native currents elicited by these cells were recorded in the whole-cell configuration of the patch-clamp technique (as described for COS-7 cells) and in the presence of K^+ blockers.
# DRN 5-HT neurons = assay: Extracellular unitary recordings of DRN 5-HT neurons in mice; type: in vivo, mouse; conditions: 10^-5 M in 100 μl bolus i.p.
# Experimental: As previously described, single-barreled glass micropipettes (recording electrodes) were filled with a 2 M NaCl solution saturated with Fast Green FCF, resulting in an impedance of 2-5 MΩ. Mice were anaesthetized with chloral hydrate (400 mg/kg, i.p., using a 2% solution), and placed in a stereotaxic frame equipped with the Stoelting “just for mouse” adaptor. Electrodes were positioned 0.5-1 mm posterior to the interaural line on the midline, and were then lowered into the DRN, usually attained at a depth of 2.5 mm from the brain surface. 5-HT neurons were then encountered over a maximal distance of 1 mm. They were identified using the following criteria: a slow (0.5-2.5 Hz) and regular firing rate and long-duration (0.8-1.2 ms) action potentials, with a positive-negative spike. Spikes were computed by using the Spike 2 software, so that the firing rate was calculated as the mean number of events occurring within a 10 s period. For each neuron, the discharge was monitored during 60 seconds. Each mouse received either spadin (10^−5 M in a 100 μl bolus) or its vehicle (saline). Starting 30 min after the injection, 3 to 4 successive descents were performed along the DRN, for a total of 4-8 cells recorded per animal. Recordings were performed for a maximal duration of 4 hours post-injection.
# mice [5] = assay: Novelty-Suppressed Feeding test (NSF); type: in vivo, mouse; conditions: 4 days; spadin i.v. 10^-6 M, fluoxetine i.p. 3 mg/kg; 3 mg/kg
# Experimental: NSF paradigm is a conflict test that elicits competing motivations: the drive to eat and the fear of venturing into the center of a bright arena. Latency to begin eating is used as an index of anxiety- and depression-like behavior. After 4 day treatment (saline or spadin, i.v.) and 24 hours food-deprivation, mice were presented with a food pellet placed in the center of a brightly plastic box (50×50×20 cm). Latency to begin eating was measured as previously described.
sequence,measurement,setting,value
APLPRWSGPIGVSWGLR [spadin],time for cell-associated radioactivity to reach a plateau,TREK-1 [1],≤ 30 min
same,reduced immobility time,"mice [2]; i.c.v., 10^-7 M",66.8%
same,reduced immobility time,"mice [2]; i.p., 10^-8 M",55.30%
same,reduced immobility time,"mice [2]; i.v., 10^-6 M",62.9%
same,reduction of time of immobility,"mice [2]; chronic, 15 days, spadin 10^-6 M, fluoxetine 1 mg/kg",around 30%
same,effect in FST,mice [2]; injection in kcnk2-/- mice,did not induce any change
same,reduction of time spent immobile,"mice [2]; subchronic, 4 days, spadin i.v. 10^-6 M, fluoxetine 3 mg/kg",43.2%
same,inhibition of current increase induced by 10 μM aa,TREK-1 [3],inhibited the aa-induced increase
same,inhibition at 1 µM,TREK-1 [4],36%
same,increase of DRN 5-HT neuron firing rate versus vehicle,DRN 5-HT neurons,146%
same,mean firing rate of DRN 5-HT neurons,DRN 5-HT neurons,3.1±0.7 Hz
same,latency to feed versus saline,mice [5],significant decrease in latency to feed; also recorded: significantly reduced the latency to feed
